Some test systems named below: DU-145 prostate; SK-OV-3 ovarian; HCT-116 colon; NCI/ADR-RES ovarian; 786-0 renal; UO-31 renal; TK-10 renal; MCF7 breast; M14 melanoma; SN12C renal; HCC-2998 colon.
Experiment in all cases: growth of human tumour cells (NCI), 48 h

We go through 14 molecules from PubChem BioAssay (NCI).

Values joined by “and” are separate entries in the source; they are usually repeats but may differ in a detail not shown here. Equal entries are not always repeated.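 Grown in 96-well plates, cells were treated for 48 hours with each compound at five concentrations. Insufficient inhibition: endpoint recorded as highest concentration tested. The concentration for 50% growth inhibition is given as GI50. Definition used: TGI = concentration required for complete inhibition of growth.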 A value given as a limit tells only on which side of the number the result lay.

Turning to `O=C(Nc1nnc(-c2ccccc2)o1)C(SC(=S)N1CCCCC1)c1ccccc1` (configuration not stated), the TGI is 71.6 µM in the experiment with DU-145 prostate; over 100 µM in the experiment with SK-OV-3 ovarian; 32.1 µM with HCT-116 colon; 33.2 µM in the experiment with NCI/ADR-RES ovarian; 87.5 µM in the experiment with 786-0 renal; 26.9 µM with UO-31 renal. Further, the TGI with TK-10 renal is over 100 µM; in the experiment on MCF7 breast it was over 100 µM; in the experiment on M14 melanoma, 27.4 µM; in the experiment on SN12C renal, 42 µM.

As for `COc1ccc(/C=C2\CCC(C)C3=C(c4ccc(OC)c(OC)c4)C(C#N)=C(N)OC32)cc1OC` (configuration not stated), the TGI with DU-145 prostate is over 100 µM; in the experiment on SK-OV-3 ovarian it was 36.4 µM; in the experiment on HCT-116 colon, 20.2 µM; in the experiment on NCI/ADR-RES ovarian, 39.4 µM; in the experiment with 786-0 renal, 25.1 µM; in the experiment on UO-31 renal it was 8.4 µM. Besides, the TGI is over 100 µM in the experiment with TK-10 renal, 19.5 µM in the experiment with MCF7 breast, 15 µM with M14 melanoma and 28.2 µM in the experiment with SN12C renal.

`CCNC(C)Cc1ccccc1` (configuration not stated): the TGI with SK-OV-3 ovarian, in the experiment on HCT-116 colon, in the experiment with 786-0 renal, in the experiment with UO-31 renal, with TK-10 renal and in the experiment on HCC-2998 colon was over 100 µM each time. For the same molecule, the TGI in the experiment with M14 melanoma and in the experiment on SN12C renal was over 100 µM in each case.

As to `NCCSc1nc2ccccc2s1`, the TGI in the experiment on DU-145 prostate was over 100 µM; with SK-OV-3 ovarian it was 79.7 µM; in the experiment with HCT-116 colon, over 100 µM; in the experiment on NCI/ADR-RES ovarian it was over 100 µM; with 786-0 renal, 71.5 µM; with UO-31 renal it was over 100 µM. Further, the TGI in the experiment on TK-10 renal was 66.3 µM; with MCF7 breast it was 98.1 µM; in the experiment on M14 melanoma, over 100 µM; in the experiment with SN12C renal, over 100 µM.

Regarding `O=C(O)c1cc2ccccc2c(N=Nc2ccccc2)c1O`, the TGI in the experiment with DU-145 prostate was 29.7 µM; in the experiment on SK-OV-3 ovarian, over 100 µM; in the experiment on HCT-116 colon, over 100 µM; in the experiment with NCI/ADR-RES ovarian, 90.4 µM; in the experiment on 786-0 renal it was over 100 µM; in the experiment on UO-31 renal it was over 100 µM. Further, the TGI in the experiment with TK-10 renal was over 100 µM; with M14 melanoma, 37.9 µM; with SN12C renal it was 74.1 µM.

In the case of `COc1cc(C=O)ccc1Oc1nnnn1-c1ccccc1`, the TGI with DU-145 prostate, in the experiment with SK-OV-3 ovarian, in the experiment on HCT-116 colon, in the experiment with NCI/ADR-RES ovarian, in the experiment with 786-0 renal and in the experiment on UO-31 renal was over 100 µM throughout. For the same molecule, the TGI in the experiment with TK-10 renal, in the experiment on M14 melanoma and in the experiment on SN12C renal was over 100 µM in each case.

Consider `CC1(C)CCC[C@@]2(C)C1CCC1(C)C(CCc3ccoc3)/C(=C/OS(=O)(=O)O)CCC12` (some centres not stated) (tested in a mixture with another compound), for which the TGI with SK-OV-3 ovarian was over 100 µM; with HCT-116 colon, 38.9 µM; with 786-0 renal it was over 100 µM; in the experiment on UO-31 renal, over 100 µM; in the experiment on TK-10 renal, over 100 µM; in the experiment on HCC-2998 colon, over 100 µM. The TGI in the experiment with M14 melanoma and in the experiment with SN12C renal was over 100 µM each time.

With `COc1cc(C2SC(N)=Nc3c2c(C)nn3C(=O)c2ccccc2O)cc(OC)c1OC` (configuration not stated), the TGI with DU-145 prostate, with SK-OV-3 ovarian, in the experiment on HCT-116 colon, in the experiment with NCI/ADR-RES ovarian, with 786-0 renal and in the experiment with UO-31 renal was over 10 µM in each case. The TGI in the experiment with TK-10 renal, in the experiment with MCF7 breast, in the experiment with M14 melanoma and in the experiment on SN12C renal was over 10 µM in each case.

Take `O=C(Nc1cccc(-n2ccc3c(NC(=O)c4ccccc4)nccc32)c1)c1ccc(N2CCOCC2)c(C(F)(F)F)c1`: the GI50 in the experiment on SK-OV-3 ovarian was 0.0326 µM; in the experiment with HCT-116 colon, 0.0371 µM; with NCI/ADR-RES ovarian, 0.0352 µM; in the experiment on UO-31 renal, 0.0537 µM; with TK-10 renal, 0.0782 µM; with HCC-2998 colon, 0.0614 µM. Further, the GI50 in the experiment on MCF7 breast was 0.0397 µM; in the experiment with M14 melanoma it was 0.0386 µM; in the experiment on SN12C renal, 0.134 µM. Besides, the TGI is 2.66 µM in the experiment with SK-OV-3 ovarian; over 100 µM in the experiment on HCT-116 colon; over 51.4 µM in the experiment on NCI/ADR-RES ovarian; 37.8 µM in the experiment with UO-31 renal; over 100 µM in the experiment with TK-10 renal; over 73.5 µM in the experiment on MCF7 breast. The TGI in the experiment with M14 melanoma and with SN12C renal was over 100 µM in each case.

Take `CC(=O)ON(C(C)=O)c1ccc(-c2nc3ccccc3s2)cc1`: the TGI was over 77.1 µM with DU-145 prostate; over 100 µM with SK-OV-3 ovarian; over 54.7 µM in the experiment with HCT-116 colon; 39.9 µM in the experiment with NCI/ADR-RES ovarian; over 57.5 µM in the experiment on 786-0 renal; 33.2 µM in the experiment on UO-31 renal. Further, the TGI in the experiment on TK-10 renal was over 100 µM; with HCC-2998 colon, 41.9 µM; in the experiment with M14 melanoma, 64 µM; in the experiment with SN12C renal, over 100 µM.

With `CCOC(=O)c1cnn2c1ncc1c(=O)n(NC(N)=O)ccc12`, the TGI in the experiment on DU-145 prostate, in the experiment on SK-OV-3 ovarian, in the experiment with HCT-116 colon, with 786-0 renal, in the experiment on UO-31 renal and in the experiment on TK-10 renal was over 100 µM each time. Also, the TGI in the experiment on MCF7 breast, in the experiment on M14 melanoma and in the experiment on SN12C renal was over 100 µM throughout.

Regarding `OC1[C@H]([C@H]2CCCC[C@@H]2O)CCC[C@@H]1[C@@H]1CCCC[C@H]1O` (some centres not stated), the TGI in the experiment with SK-OV-3 ovarian, in the experiment on HCT-116 colon, in the experiment with 786-0 renal, in the experiment with UO-31 renal, in the experiment with TK-10 renal and in the experiment on HCC-2998 colon was over 100 µM throughout. Moreover, the TGI in the experiment with M14 melanoma and with SN12C renal was over 100 µM in each case.

With `CC[C@]1(O)C[C@H]2CN(CCc3c([nH]c4ccccc34)[C@@](C(=O)OC)(c3cc4c(cc3OC)N(C=O)[C@H]3[C@@](O)(C(=O)OC)[C@H](OC(C)=O)[C@]5(CC)C=CCN6CC[C@]43[C@@H]65)C2)C1`, the GI50 in the experiment on HCT-116 colon was 0.0011 µM; in the experiment on NCI/ADR-RES ovarian it was 1.18 µM and 0.536 µM and 1.95 µM; with UO-31 renal, 0.476 µM. The TGI in the experiment on NCI/ADR-RES ovarian is 4.87 µM and 12.5 µM and 8.04 µM.

As to `Cc1c(NC(=S)NN)c(=O)n(-c2ccccc2)n1C`, the TGI with DU-145 prostate, in the experiment on SK-OV-3 ovarian, in the experiment on HCT-116 colon, in the experiment on NCI/ADR-RES ovarian, in the experiment on 786-0 renal and in the experiment with UO-31 renal was over 100 µM each time. The TGI in the experiment with TK-10 renal, with MCF7 breast, in the experiment with M14 melanoma and in the experiment with SN12C renal was over 100 µM each time.
